Literature values as cited in patent US20080293709A1, “Novel 2-Amino-Heterocycles Useful in the Treatment of Abeta-Related Pathologies” (AstraZeneca AB, priority 2005, published 2008).
Non-standard residues stand in square brackets, D forms with d. Residues, ends and D or L forms follow the SMILES beside them. *: point of attachment. Sta = CC(C)C[C@H](N)[C@@H](O)CC(=O)O; Isovaleryl = CC(C)CC(=O)*

Target: BACE (Homo sapiens, UniProt P56817)
Sequence (P56817 46-501): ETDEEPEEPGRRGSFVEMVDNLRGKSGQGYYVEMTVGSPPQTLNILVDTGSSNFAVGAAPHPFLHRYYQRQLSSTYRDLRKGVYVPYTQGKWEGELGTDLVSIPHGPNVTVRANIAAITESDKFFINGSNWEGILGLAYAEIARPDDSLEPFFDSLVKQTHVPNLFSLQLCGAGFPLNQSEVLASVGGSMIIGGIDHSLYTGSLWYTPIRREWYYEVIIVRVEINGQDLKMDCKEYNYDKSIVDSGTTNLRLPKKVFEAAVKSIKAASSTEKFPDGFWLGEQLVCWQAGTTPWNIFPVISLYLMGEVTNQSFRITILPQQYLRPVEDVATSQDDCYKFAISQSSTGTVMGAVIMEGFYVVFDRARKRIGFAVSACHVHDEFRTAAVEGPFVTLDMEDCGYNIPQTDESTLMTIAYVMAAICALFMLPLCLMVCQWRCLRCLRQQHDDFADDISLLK

inhibition of BACE: inhibited weakly
SMILES: CC(C)CC(=O)N[C@H](C(=O)N[C@H](C(=O)N[C@@H](CC(C)C)[C@@H](O)CC(=O)N[C@@H](C)C(=O)N[C@@H](CC(C)C)[C@@H](O)CC(=O)O)C(C)C)C(C)C [pepstatin] (Isovaleryl-VV[Sta]A[Sta]-OH)
